According to US20160311788A1, “Antifouling Compounds And Use Thereof” (National University of Singapore, priority 2008, published 2016):
Structures can show the parent of a compound that is named as a salt.

Assays:
[1] = cited from earlier work
[2] = system: marine bacteria strain S27; test: disc inhibition assay, strain S27; format: cell-based, Tenacibaculum lutimaris
Method in brief: (§1)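 Compounds were applied at 50 μg per 6 mm disc (from 2 mg/ml DMSO stock; DMSO control) onto lawns of Singapore coastal fouling bacteria on marine agar. After overnight incubation in the dark at 35 °C, inhibition-zone diameters were caliper-measured; mean of two replicates.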

[3] = system: marine bacteria strain S30; test: disc inhibition assay, strain S30; format: cell-based, Bacillus borophilicus; conditions: Bacillus, S30, 24 h
Method in brief: as §1

[4] = system: marine bacteria strain S18; test: disc inhibition assay, strain S18; format: cell-based, Microbacterium esteraromaticum
[5] = system: marine bacteria strain S1; test: disc inhibition assay, strain S1; format: cell-based, Rhodovulum iodosum
Method in brief: as §1

[6] = system: marine bacteria strain S10; test: disc inhibition assay, strain S10; format: cell-based, Halobacillus trueperi; conditions: Halobacillus trueperi, S10, 24 h
Method in brief: as §1

[7] = system: Escherichia coli (Strain DH5a); test: disc inhibition assay, REF 2; format: cell-based
Experimental: (§2) 13 strains of marine bacteria were isolated from fouling communities located in the coastal waters around Singapore. These were characterized in earlier studies and reported in Teo et al. (U.S. patent application Ser. No. 11/265,833) and Choong et al (in prep). In addition, four reference bacterial strains were added tested: Escherichia coli (Strain K12, ATCC 15222), E. coli (strain DH5a), Pseudomonas aeruginosa (strain LMG 12228; ATCC 15692) and P. putida (strain KT2440; ATCC 47054). All the bacteria were also tested against five antibiotics: ampicillin (AMP), tetracycline (TETR), erythromycin (ERY), chloramphenicol (CHL) and streptomycin (STREP).
(§3) Disks comprising the compounds to be tested were prepared as follows. The antibacterial assay, the pure compounds were made up to a concentration of 2 mgml^−1 in DMSO. 25 μl of the stock was pipetted onto each 6 mm sterile disc (Macherey-Nagel #484000) to obtain 50 μg of compound per disc. Equivalent volume of DMSO was used inoculated for the control.
(§4) For all disk inhibition assays, bacterial cultures were grown in marine broth (Pronadisa #1217.00). Sterile swabs dipped into the cultures were used to inoculate Marine Agar plates with a bacterial lawn by smearing the culture over the surface. After inoculating the plates, discs with antibiotics, pharmaceuticals or control blanks were placed on each plate. Each concentration of antibiotic or pharmaceutical was tested with two replicates. After the disks were placed on the agar surface, plates were incubated overnight in the dark at 35° C. After incubation, plates were examined for zones of inhibition or clearing around control and treated disks. The diameter of any zone of clearing or inhibition was measured using Vernier calipers. There were two replicates per treatment, and the average was taken. There was no zone of inhibition around the control blanks in all the assays.

[8] = system: marine bacteria strain S4; test: disc inhibition assay, strain S4; format: cell-based, Bacillus algicola; conditions: Guptibacillus algicola, S4, 24 h
Method in brief: as §1

[9] = system: Pseudomonas aeruginosa (strain LMG 12228; ATCC 15692); test: disc inhibition assay, REF 3; format: cell-based
Experimental: as §2, §3, §4

[10] = system: Pseudomonas putida (Strain KT2440; BCRC 10459); test: disc inhibition assay, REF 4; format: cell-based
Experimental: as §2, §3, §4

[11] = system: marine bacteria strain S3; test: disc inhibition assay, strain S3; format: cell-based, Erythrobacter aquimaris
Method in brief: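 Disc inhibition assay against a marine bacterial strain isolated from fouling communities in Singapore coastal waters. The strain was grown in marine broth and swabbed over Marine Agar plates as a lawn. 6 mm sterile discs loaded with compound in DMSO, or DMSO controls, were placed on the plates and incubated overnight in the dark at 35° C.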

[12] = system: marine bacteria strain S16; test: disc inhibition assay, strain S16; format: cell-based, Pseudoalteromonas piscicida
Method in brief: as §1

[13] = system: marine bacteria strain S14; test: disc inhibition assay, strain S14; format: cell-based, Vibrio probioticus
[14] = system: marine bacteria strain S9; test: disc inhibition assay, strain S9; format: cell-based, Bacillus algicola; conditions: Guptibacillus algicola, S9, 24 h
Method in brief: as §1

[15] = system: marine bacteria strain S29; test: disc inhibition assay, strain S29; format: cell-based, Bacillus hwajinpoensis; conditions: Guptibacillus hwajinpoensis, S29, 24 h
Method in brief: as §1

[16] = system: Escherichia coli (Strain K12; ATCC 15222); test: disc inhibition assay, REF 1; format: cell-based
Experimental: as §2, §3, §4

[17] = system: marine bacteria strain S28; test: disc inhibition assay, strain S28; format: cell-based, Arthrobacter protophormial
Method in brief: as §1

[18] = system: marine bacteria strain S17; test: disc inhibition assay, strain S17; format: cell-based, Gordonia terrae
Method in brief: as §1

In the case of CN(C)C(=O)C(CCN1CCC(O)(c2ccc(Cl)cc2)CC1)(c1ccccc1)c1ccccc1 [Loperamide hydrochloride], the solubility in water [1] is given as “slightly soluble”.
In the case of CN(C)[C@@H]1C(O)=C(C(N)=O)C(=O)[C@@]2(O)C(O)=C3C(=O)c4c(O)cccc4[C@@](C)(O)[C@H]3C[C@@H]12 [TETR, Tetracycline, reference compound], the zone of inhibition at 30 µg/disc ([2]; Tenacibaculum lutimaris, S27, 24 h, strain 27, 30 ug) is reported as 2 to 5 mm, the zone of inhibition ([2]; strain 27, 5 ug) is reported as “−” and the zone of inhibition at 5 µg/disc ([3]; strain 30, 5 ug) is reported as 2 to 5 mm. The zone of inhibition at 30 µg/disc ([3]; strain 30, 30 ug) was 2 to 5 mm, the zone of inhibition at 30 µg/disc ([4]; Microbacterium esteraromaticum, S18, 24 h, strain 18, 30 ug) was 2 to 5 mm and the zone of inhibition ([4]; strain 18, 5 ug) was “−”. For the same compound, the zone of inhibition ([5]; strain 1, 5 ug) was “−”, the zone of inhibition ([5]; strain 1, 30 ug) was “−” and the zone of inhibition at 5 µg/disc ([6]; strain 10, 5 ug) was 2 to 5 mm. For the same compound, the zone of inhibition at 30 µg/disc ([6]; strain 10, 30 ug) was 2 to 5 mm, the zone of inhibition ([7]; REF 2, 5 ug) was “+ (2-5 mm zone of inhibition around each disk was observed.)” and the zone of inhibition ([7]; REF 2, 30 ug) was “++ (5-10 mm zone was observed.)”. For the same compound, the zone of inhibition at 5 µg/disc ([8]; strain 4, 5 ug) was 2 to 5 mm, the zone of inhibition at 30 µg/disc ([8]; strain 4, 30 ug) was 5 to 10 mm and the zone of inhibition ([9]; REF 3, 5 ug) was “+ (2-5 mm zone of inhibition around each disk was observed.)”. For the same compound, the zone of inhibition ([9]; REF 3, 30 ug) was “++ (5-10 mm zone was observed.)”, the zone of inhibition ([10]; REF 4, 5 ug) was “++ (5-10 mm zone was observed.)” and the zone of inhibition ([10]; REF 4, 30 ug) was “++ (5-10 mm zone was observed.)”. The zone of inhibition ([11]; strain 3, 5 ug) was “−”, the zone of inhibition ([11]; strain 3, 30 ug) was “−” and the zone of inhibition ([12]; strain 16, 5 ug) was “−”. For the same compound, the zone of inhibition ([12]; strain 16, 30 ug) was “−”, the zone of inhibition at 30 µg/disc ([13]; Vibrio, S14, 24 h) was 2 to 5 mm and the zone of inhibition ([13]; strain 14, 5 ug) was “−”. For the same compound, the zone of inhibition at 5 µg/disc ([14]; strain 9, 5 ug) was 2 to 5 mm, the zone of inhibition at 30 µg/disc ([14]; strain 9, 30 ug) was 5 to 10 mm and the zone of inhibition at 5 µg/disc ([15]; strain 29, 5 ug) was 2 to 5 mm. For the same compound, the zone of inhibition at 30 µg/disc ([15]; strain 29, 30 ug) was 5 to 10 mm, the zone of inhibition ([16]; REF 1, 5 ug) was “+ (2-5 mm zone of inhibition around each disk was observed.)” and the zone of inhibition ([16]; REF 1, 30 ug) was “++ (5-10 mm zone was observed.)”. For the same compound, the zone of inhibition at 30 µg/disc ([17]; Arthrobacter, S28, 24 h, strain 28, 30 ug) was 2 to 5 mm, the zone of inhibition ([17]; strain 28, 5 ug) was “−” and the zone of inhibition ([18]; strain 17, 5 ug) was “−”. For the same compound, the zone of inhibition ([18]; strain 17, 30 ug) was “−”.
